Measured values taken from publication PMC2248166, “Quantitative peptide binding motifs for 19 human and mouse MHC class I molecules derived using positional scanning combinatorial peptide libraries” (Immunome Research, 2008).
Where a SMILES comes first, the peptide text is derived from it.

Molecular target: HLA A*3001 (Homo sapiens, UniProt P04439, D140H/D185E/E176W/F33S/G80R/H175R/K168Q/R138E/R41S)
Experiment: biochemical
Type: binding

Sequence of HLA A*3001 (P04439 25-365 limits assumed, stated change not applied): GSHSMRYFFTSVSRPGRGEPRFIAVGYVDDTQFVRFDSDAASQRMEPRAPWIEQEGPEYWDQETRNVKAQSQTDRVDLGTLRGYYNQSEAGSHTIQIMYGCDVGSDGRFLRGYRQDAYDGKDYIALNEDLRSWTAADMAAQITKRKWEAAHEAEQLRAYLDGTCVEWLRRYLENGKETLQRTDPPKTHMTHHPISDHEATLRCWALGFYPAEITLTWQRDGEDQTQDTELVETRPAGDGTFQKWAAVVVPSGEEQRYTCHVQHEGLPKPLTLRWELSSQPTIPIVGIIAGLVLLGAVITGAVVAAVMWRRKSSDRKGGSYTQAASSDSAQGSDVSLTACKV

| SMILES | IC50 |
| --- | --- |
| CC[C@H](C)[C@H](NC(=O)[C@H](C)N)C(=O)N[C@@H](CCCNC(=N)N)C(=O)N[C@@H](C)C(=O)NCC(=O)N[C@@H](Cc1ccc(O)cc1)C(=O)N[C@@H](CO)C(=O)N[C@H](C(=O)N[C@H](C(=O)O)C(C)C)[C@@H](C)CC [3102.0160] (H-AIRAGYSIV-OH) | 1.4 nM |
| CSCC[C@H](NC(=O)[C@H](Cc1ccccc1)NC(=O)[C@H](CCCCN)NC(=O)[C@H](CCCNC(=N)N)NC(=O)[C@H](CO)NC(=O)[C@@H](N)CCSC)C(=O)N[C@@H](CCC(N)=O)C(=O)N[C@H](C(=O)N[C@@H](Cc1ccc(O)cc1)C(=O)O)C(C)C [3102.0264] (H-MSRKFMQVY-OH) | 1.5 nM |
| CC[C@H](C)[C@H](NC(=O)[C@H](CCCCN)NC(=O)[C@H](Cc1c[nH]cn1)NC(=O)[C@@H](N)CCCCN)C(=O)N[C@@H](Cc1ccccc1)C(=O)N[C@@H](CO)C(=O)N1CCC[C@H]1C(=O)N[C@@H](Cc1ccccc1)C(=O)N[C@@H](CCCCN)C(=O)O [3102.0267] (H-KHKIFSPFK-OH) | 0.89 nM |
| CC(C)C[C@H](NC(=O)[C@H](CC(N)=O)NC(=O)[C@H](CCC(N)=O)NC(=O)[C@H](CC(N)=O)NC(=O)[C@H](CO)NC(=O)[C@H](CC(C)C)NC(=O)[C@H](Cc1c[nH]cn1)NC(=O)[C@@H](NC(=O)[C@@H](N)Cc1c[nH]cn1)[C@@H](C)O)C(=O)O [3102.0108] (H-HTHLSNQNL-OH) | 5.8 nM |
| CC(C)C[C@H](NC(=O)[C@H](CC(N)=O)NC(=O)[C@@H](NC(=O)[C@H](CC(C)C)NC(=O)[C@H](CCCNC(=N)N)NC(=O)[C@H](CCC(N)=O)NC(=O)[C@@H](N)CCCCN)[C@@H](C)O)C(=O)N[C@@H](CCC(=O)O)C(=O)N[C@@H](CCCCN)C(=O)O [3102.0243] (H-KQRLTNLEK-OH) | 0.95 nM |
| CC[C@H](C)[C@H](NC(=O)[C@H](Cc1ccc(O)cc1)NC(=O)CNC(=O)CNC(=O)[C@@H](NC(=O)[C@H](Cc1ccccc1)NC(=O)[C@H](CCCNC(=N)N)NC(=O)[C@H](C)NC(=O)[C@@H](N)CCCNC(=N)N)[C@@H](C)CC)C(=O)O [3102.0226] (H-RARFIGGYI-OH) | 0.26 nM |
| CSCC[C@H](N)C(=O)N[C@H](C(=O)N[C@@H](CCCNC(=N)N)C(=O)N[C@@H](CC(C)C)C(=O)N[C@H](C(=O)N[C@H](C(=O)N[C@@H](CCC(N)=O)C(=O)NCC(=O)N[C@@H](CC(C)C)C(=O)O)[C@@H](C)O)[C@@H](C)O)C(C)C [3102.0012] (H-MVRLTTQGL-OH) | 8.3 nM |
| CC(C)C[C@H](NC(=O)[C@@H](N)CCCNC(=N)N)C(=O)N[C@@H](CCCCN)C(=O)N[C@@H](CO)C(=O)N[C@@H](C)C(=O)N[C@H](C(=O)N[C@@H](CS)C(=O)N[C@@H](Cc1ccc(O)cc1)C(=O)N[C@@H](CCCCN)C(=O)O)C(C)C [3102.0220] (H-RLKSAVCYK-OH) | 0.18 nM |
| CC[C@H](C)[C@H](NC(=O)[C@H](CCC(N)=O)NC(=O)[C@@H](NC(=O)[C@@H](NC(=O)[C@H](C)NC(=O)[C@H](CCCCN)NC(=O)[C@@H](NC(=O)[C@@H](N)[C@@H](C)O)[C@@H](C)O)[C@@H](C)O)[C@@H](C)O)C(=O)N[C@@H](C)C(=O)O [3102.0270] (H-TTKATTQIA-OH) | 6.5 nM |
| CC(C)C[C@H](NC(=O)[C@H](Cc1c[nH]c2ccccc12)NC(=O)[C@H](CCCCN)NC(=O)[C@@H](NC(=O)[C@@H](N)CCCCN)C(C)C)C(=O)N[C@@H](CCC(N)=O)C(=O)N[C@@H](CC(N)=O)C(=O)N[C@@H](CO)C(=O)N[C@H](C(=O)O)C(C)C [3102.0194] (H-KVKWLQNSV-OH) | 0.5 nM |
| CC(C)[C@H](NC(=O)[C@H](CCCCN)NC(=O)[C@H](Cc1ccccc1)NC(=O)[C@@H](NC(=O)[C@H](CC(=O)O)NC(=O)[C@H](Cc1ccc(O)cc1)NC(=O)[C@H](CCCNC(=N)N)NC(=O)[C@@H](NC(=O)[C@@H](N)CCCNC(=N)N)[C@@H](C)O)[C@@H](C)O)C(=O)O [3102.0144] (H-RTRYDTFKV-OH) | 0.2 nM |
| CSCC[C@H](NC(=O)[C@H](CC(C)C)NC(=O)[C@H](CCCNC(=N)N)NC(=O)[C@H](C)NC(=O)[C@@H](N)CC(N)=O)C(=O)N[C@@H](CCCNC(=N)N)C(=O)N[C@@H](C)C(=O)N[C@@H](CC(C)C)C(=O)N[C@@H](CCCCN)C(=O)O [3102.0218] (H-NARLMRALK-OH) | 2.2 nM |
| CC[C@H](C)[C@H](NC(=O)[C@H](CC(N)=O)NC(=O)[C@@H]1CCCN1C(=O)[C@@H](NC(=O)[C@H](Cc1c[nH]cn1)NC(=O)[C@H](CC(N)=O)NC(=O)[C@H](CCCCN)NC(=O)[C@@H](NC(=O)[C@@H](N)CCCCN)C(C)C)[C@@H](C)CC)C(=O)O [3102.0222] (H-KVKNHIPNI-OH) | 0.68 nM |
| C[C@H](NC(=O)[C@H](C)NC(=O)[C@H](CCCCN)NC(=O)CNC(=O)[C@@H](N)CCCCN)C(=O)N[C@@H](C)C(=O)N[C@@H](Cc1ccccc1)C(=O)N[C@@H](C)C(=O)N[C@@H](CCCCN)C(=O)O [3102.0176] (H-KGKAAAFAK-OH) | 3.1 nM |
| CC[C@H](C)[C@H](NC(=O)[C@H](Cc1ccc(O)cc1)NC(=O)[C@@H](NC(=O)[C@@H](N)CCCCN)C(C)C)C(=O)NCC(=O)N[C@@H](Cc1ccc(O)cc1)C(=O)N[C@@H](CS)C(=O)N[C@@H](CCSC)C(=O)N[C@@H](C)C(=O)O [3102.0272] (H-KVYIGYCMA-OH) | 2.6 nM |
| CC(C)C[C@H](NC(=O)[C@@H](N)CCCCN)C(=O)N[C@@H](CCCNC(=N)N)C(=O)N[C@@H](CS)C(=O)N[C@@H](CCCNC(=N)N)C(=O)N[C@@H](CC(N)=O)C(=O)N[C@H](C(=O)N[C@@H](CCC(=O)O)C(=O)N[C@@H](C)C(=O)O)[C@@H](C)O [3102.0105] (H-KLRCRNTEA-OH) | 14 nM |
| CC[C@H](C)[C@H](NC(=O)[C@@H](NC(=O)[C@@H](N)CCCCN)[C@@H](C)O)C(=O)N[C@@H](Cc1c[nH]c2ccccc12)C(=O)N[C@@H](CCC(=O)O)C(=O)N[C@H](C(=O)N1CCC[C@H]1C(=O)N[C@@H](CCC(N)=O)C(=O)N[C@@H](CCCCN)C(=O)O)[C@@H](C)CC [3102.0190] (H-KTIWEIPQK-OH) | 12 nM |
| CC(C)C[C@H](NC(=O)[C@H](CCCCN)NC(=O)[C@H](CCCCN)NC(=O)[C@@H](NC(=O)[C@@H](N)CCCCN)C(C)C)C(=O)N[C@@H](CC(N)=O)C(=O)N[C@@H](CCCNC(=N)N)C(=O)N[C@@H](CS)C(=O)N[C@@H](C)C(=O)O [3102.0262] (H-KVKKLNRCA-OH) | 3.1 nM |
| C[C@H](NC(=O)[C@H](Cc1ccc(O)cc1)NC(=O)[C@H](CCCNC(=N)N)NC(=O)[C@H](Cc1ccc(O)cc1)NC(=O)[C@@H](NC(=O)[C@@H](N)CCCCN)[C@@H](C)O)C(=O)N[C@@H](Cc1ccccc1)C(=O)N[C@@H](CO)C(=O)N[C@@H](CCCCN)C(=O)O [3102.0120] (H-KTYRYAFSK-OH) | 22 nM |
| CC[C@H](C)[C@H](NC(=O)[C@H](CC(N)=O)NC(=O)[C@@H]1CCCN1C(=O)[C@H](CCCNC(=N)N)NC(=O)[C@H](Cc1ccc(O)cc1)NC(=O)[C@@H](N)CC(C)C)C(=O)N1CCC[C@H]1C(=O)N[C@@H](CC(C)C)C(=O)N[C@@H](CCCCN)C(=O)O [3102.0026] (H-LYRPNIPLK-OH) | 3.5 nM |
| CC[C@H](C)[C@H](NC(=O)[C@H](Cc1ccc(O)cc1)NC(=O)[C@H](CC(C)C)NC(=O)[C@@H]1CCCN1C(=O)[C@H](CC(=O)O)NC(=O)[C@H](CCCNC(=N)N)NC(=O)[C@@H](NC(=O)[C@@H](N)CCSC)[C@@H](C)O)C(=O)N[C@@H](Cc1ccc(O)cc1)C(=O)O [3102.0147] (H-MTRDPLYIY-OH) | 17 nM |
| CC[C@H](C)[C@H](NC(=O)[C@@H](NC(=O)[C@H](CO)NC(=O)[C@H](CCCNC(=N)N)NC(=O)[C@H](CC(C)C)NC(=O)[C@H](CO)NC(=O)[C@@H](N)CCSC)[C@@H](C)O)C(=O)N[C@H](C(=O)N[C@@H](CCCCN)C(=O)O)[C@@H](C)CC [3102.0180] (H-MSLRSTIIK-OH) | 37 nM |
| CC[C@H](C)[C@H](NC(=O)[C@H](Cc1ccccc1)NC(=O)[C@H](Cc1ccccc1)NC(=O)[C@H](CO)NC(=O)[C@H](CC(N)=O)NC(=O)[C@H](CO)NC(=O)[C@H](CC(C)C)NC(=O)[C@@H](N)Cc1c[nH]cn1)C(=O)N[C@@H](CCCCN)C(=O)O [3102.0086] (H-HLSNSFFIK-OH) | 17 nM |
| CC(C)[C@H](NC(=O)[C@@H](N)CCCCN)C(=O)N[C@@H](Cc1ccccc1)C(=O)N[C@H](C(=O)N1CCC[C@H]1C(=O)N[C@@H](C)C(=O)N1CCC[C@H]1C(=O)N[C@@H](Cc1ccccc1)C(=O)NCC(=O)O)C(C)C [3102.0015] (H-KVFVPAPFG-OH) | 6.6 nM |
| N=C(N)NCCC[C@H](NC(=O)CNC(=O)[C@@H](N)CCCCN)C(=O)N[C@@H](CCCNC(=N)N)C(=O)N[C@@H](CCC(N)=O)C(=O)N[C@@H](Cc1ccc(O)cc1)C(=O)N[C@@H](Cc1ccccc1)C(=O)N[C@@H](Cc1ccc(O)cc1)C(=O)NCC(=O)O [3102.0035] (H-KGRRQYFYG-OH) | 2.9 nM |
| CSCC[C@H](NC(=O)[C@H](Cc1c[nH]cn1)NC(=O)[C@H](CC(N)=O)NC(=O)[C@H](CCCNC(=N)N)NC(=O)[C@H](Cc1ccccc1)NC(=O)[C@@H](N)CCCNC(=N)N)C(=O)N[C@@H](CS)C(=O)N[C@@H](CC(C)C)C(=O)N[C@H](C(=O)O)C(C)C [3102.0134] (H-RFRNHMCLV-OH) | 31 nM |
| CC(C)[C@H](NC(=O)[C@@H](N)CO)C(=O)N[C@@H](CCCCN)C(=O)N[C@@H](CS)C(=O)N[C@@H](CCC(N)=O)C(=O)N[C@@H](CO)C(=O)N1CCC[C@H]1C(=O)N1CCC[C@H]1C(=O)N[C@@H](CO)C(=O)O [3102.0135] (H-SVKCQSPPS-OH) | 17 nM |
| C[C@H](N)C(=O)N[C@H](C(=O)N[C@@H](C)C(=O)N[C@@H](CCCNC(=N)N)C(=O)N[C@@H](CO)C(=O)N[C@@H](CO)C(=O)N1CCC[C@H]1C(=O)N[C@@H](CCC(=O)O)C(=O)N[C@@H](CCCCN)C(=O)O)[C@@H](C)O [3102.0148] (H-ATARSSPEK-OH) | 0.58 nM |
| CC[C@H](C)[C@H](NC(=O)[C@H](Cc1c[nH]cn1)NC(=O)[C@H](Cc1ccccc1)NC(=O)[C@H](CO)NC(=O)[C@@H](NC(=O)[C@@H](N)CCCCN)[C@@H](C)O)C(=O)N[C@H](C(=O)N[C@@H](Cc1ccccc1)C(=O)N[C@@H](CC(C)C)C(=O)O)[C@@H](C)CC [3102.0050] (H-KTSFHIIFL-OH) | 25 nM |
| CC(C)C[C@H](NC(=O)[C@H](CO)NC(=O)[C@H](Cc1c[nH]cn1)NC(=O)[C@H](CC(C)C)NC(=O)[C@H](CCCNC(=N)N)NC(=O)[C@H](C)NC(=O)[C@H](CO)NC(=O)[C@@H](NC(=O)[C@@H](N)Cc1c[nH]cn1)[C@@H](C)O)C(=O)O [3102.0250] (H-HTSARLHSL-OH) | 4.1 nM |
